Data from patent US20220388962A1 (Biohaven Therapeutics Ltd., priority 2019, published 2022).
Where a name gives a salt, the structure may show the parent alone.

What was measured:
[1] = target: T1, TDP-43 (Homo sapiens, UniProt Q13148); conditions: using bt-(TG)6, not bt-TAR32; cited from earlier work
[2] = target: T1, TDP-43; conditions: previously reported; cited from earlier work
[3] = target: T1, TDP-43; test: TDP-43-DNA alpha-screen assay (bt-TAR-32 displacement); assay type: binding; conditions: bt-TAR-32 0.125 nM, 15 ng/ml TDP-43
Summary of the method: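 GST-TDP-43 (15 ng/ml final) on anti-GST acceptor beads pre-incubated 30 min at 23 °C with compound (50 to 0.02 μM, half-log) in 25 mM Tris pH 7.4, 0.1% BSA, 0.1% Triton X-100. Biotinylated TAR-32 DNA (0.125 nM final) on streptavidin donor beads added, 90 min at 23 °C dark; AlphaScreen signal fitted for IC50.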

T1 sequence (Q13148 whole entry): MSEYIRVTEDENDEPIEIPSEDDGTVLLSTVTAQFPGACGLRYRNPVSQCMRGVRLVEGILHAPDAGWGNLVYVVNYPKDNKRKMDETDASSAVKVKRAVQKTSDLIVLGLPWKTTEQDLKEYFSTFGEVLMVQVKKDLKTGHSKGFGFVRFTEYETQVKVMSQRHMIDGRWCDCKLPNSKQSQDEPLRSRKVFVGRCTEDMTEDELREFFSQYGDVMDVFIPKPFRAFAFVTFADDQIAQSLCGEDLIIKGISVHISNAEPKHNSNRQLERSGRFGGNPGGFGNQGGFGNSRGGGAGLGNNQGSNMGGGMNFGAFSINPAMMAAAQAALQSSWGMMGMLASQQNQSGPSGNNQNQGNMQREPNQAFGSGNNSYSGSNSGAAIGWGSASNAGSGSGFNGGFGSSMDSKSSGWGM

Structure (SMILES) | IC50 [3] | activity in TDP-43 alpha-screen [1] | caspase-7 cleavage of TDP-43 [2]
COc1ccc(-c2cc(NCCCN(C)C)c3ccccc3n2)cc1 [(XXVIII)] | – | active | promoted caspase-7 cleavage of TDP-43
COc1ccc(-c2cc(NC3CCN(CCCN)CC3)c3ccccc3n2)cc1 [Example 104] | 0.22 µM | – | –
CN(C)CCCNc1cc(-c2ccc3ncccc3c2)nc2ccccc12 [Example 118] | 0.8 µM | – | –
COc1ccc(-c2cc(NCCCN(CCCN(C)C)CC3CCN(C(=O)OC(C)(C)C)CC3)c3ccccc3n2)cc1 [Example 19, tert-Butyl 4-(((3-(dimethylamino)propyl)(3-((2-(4-methoxyphenyl)quinolin-4-yl)amino)propyl)amino)methyl)piperidine-1-carboxylate] | 0.95 µM | – | –
COc1ccc(-c2cc(NCCCN(C)CCCN(C)C)c3ccccc3n2)cc1 [Example 1, N^1-(3-((2-(4-Methoxyphenyl)quinolin-4-yl)amino)propyl)-N^1,N^3,N^3-trimethyl propane-1,3-diamine] | 0.28 µM | – | –
COc1ccc(-c2cc(NCCCO)c3ccccc3n2)cc1 [Example 135] | 31.7 µM | – | –
COc1ccc(-c2cc(NCCCN(C)C)c3cc(OC)c(OC)cc3n2)cc1 [Example 108] | 0.27 µM | – | –
COc1ccc(-c2cc(NCCCNCCCN3CCCCC3)c3ccccc3n2)cc1 [Example 4, N^1-(2-(4-Methoxyphenyl)quinolin-4-yl)-N^3-(3-(piperidin-1-yl)propyl) propane-1,3-diamine trihydrochloride] | 0.22 µM | – | –
COc1ccc(-c2cc(NCCCN(C)CCCNC(=O)Cc3c(C)c4ccc(N)cc4oc3=O)c3ccccc3n2)cc1 [Example 77, 2-(7-Amino-4-methyl-2-oxo-2H-chromen-3-yl)-N-(3-((3-((2-(4-methoxyphenyl)quinolin-4-yl)amino)propyl)(methyl)amino)propyl)acetamide trihydrochloride] | 0.25 µM | – | –
COc1ccc(-c2cc(NCCCN(C)CC3CCNCC3)c3ccccc3n2)cc1 [Example 48, N-(3-(N-Methyl-N-((piperidin-4-yl)methyl)amino)propyl)-2-(4-methoxyphenyl)quinolin-4-amine] | 0.1 µM | – | –
COc1ccc(-c2cc(NCCCN(C)CCCN)c3cc(OC)ccc3n2)cc1 [Example 9, N^1-(3-Aminopropyl)-N^3-(6-methoxy-2-(4-methoxyphenyl)quinolin-4-yl)-N^1-methylpropane-1,3-diamine] | 0.05 µM | – | –
COc1cc2c(NCCCN(C)C)ccnc2cc1OCCCN1CCCC1 [Example 144] | 0.01 µM | – | –
N[C@H]1C[C@@H](Nc2cc(-c3ccc(N4CCNCC4)cc3)nc3ccccc23)C1 [Example 83] | 0.03 µM | – | –

The remaining compounds from weak to strong by IC50 [3], led by results:

IC50 [3] | Structure (SMILES) | activity in TDP-43 alpha-screen [1] | caspase-7 cleavage of TDP-43 [2]
1.85 µM | COc1ccc(-c2cc(NCCN3CCN(C)CC3)c3ccccc3n2)cc1 [Example 74, 2-(4-Methoxyphenyl)-N-(2-(4-methylpiperazin-1-yl)ethyl)quinolin-4-amine] | – | –
1.71 µM | COc1ccc(-c2cc(NCCCN3CCN(C)CC3)c3ccccc3n2)cc1 [Example 73, 2-(4-Methoxyphenyl)-N-(3-(4-methylpiperazin-1-yl)propyl)quinolin-4-amine] | – | –
1.11 µM | COc1ccc(-c2cc(NCCCN(C)Cc3ccc(N)nc3)c3ccccc3n2)cc1 [Example 24, N^1-((6-Aminopyridin-3-yl)methyl)-N^3-(2-(4-methoxyphenyl)-quinolin-4-yl)-N^1-methylpropane-1,3-diamine] | – | –
0.42 µM | CC(C)C(N)C(=O)NC(C(=O)N1CCN(c2ccc(-c3cc(NCCCN(C)C)c4ccccc4n3)cc2)CC1)C(C)C (centres unmarked) [Example 111] | – | –
0.41 µM | COc1cc2nccc(NCCCN(C)CCCN)c2cc1OC [Example 146] | – | –
0.22 µM | COc1ccc(-c2cc(NCCCN(C)CC3CCN(CC4CC4)CC3)c3ccccc3n2)cc1 [Example 38, N^1-((1-(Cyclopropylmethyl)piperidin-4-yl)methyl)-N^3-(2-(4-methoxyphenyl)quinolin-4-yl)-N^1-methylpropane-1,3-diamine] | – | –
